Assay results from the supplement of paper PMC10307832.

Compound: CN(C)C[C@@H]1CCn2cc(c3ccccc32)C2=C(C(=O)NC2=O)c2cn(c3ccccc23)CCO1 [Ruboxistaurin] + CC(=O)c1c(C)c2cnc(Nc3ccc(N4CCNCC4)cn3)nc2n(C2CCCC2)c1=O [Palbociclib] (partner 0.5 µM)
Assay: relative viability (nuclei count vs DMSO), 5 days (fraction); higher = more cells survive
Procedure, shortened: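 One day after seeding in 1536-well plates, lung cancer cell lines were dosed by pin tool. Dosing was either single-drug or a fixed anchor-drug dose plus five library-drug doses (not always all listed) in √10 steps. After 5 days, nuclei were stained in one fix-and-stain step and counted on 4× images, and relative viability is the nuclei count of treated wells over that of vehicle wells, given as the median of duplicate plates.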

| Cell Line | relative viability (first compound 0.08 µM) | relative viability (first compound 0.8 µM) | relative viability (first compound 2.53 µM) | relative viability (first compound 8 µM) |
| --- | --- | --- | --- | --- |
| 201T | 0.357 | 0.344 | 0.353 | 0.37 |
| A-427 | 0.554 | 0.524 | 0.5 | 0.538 |
| ABC-1 | 0.953 | 0.724 | 0.968 | 1.05 |
| BEN | 0.415 | 0.453 | 0.522 | 0.495 |
| CAL-12T | 0.476 | 0.426 | 0.419 | 0.483 |
| COR-L23 | 0.261 | 0.267 | 0.313 | 0.372 |
| COR-L 105 | 0.418 | 0.389 | 0.411 | 0.416 |
| ChaGo-K-1 | 0.898 | 0.889 | 0.933 | 0.98 |
| EKVX | 0.414 | 0.318 | 0.424 | 0.321 |
| EMC-BAC-2 | 0.51 | 0.506 | 0.514 | 0.493 |
| EPLC-272H | 0.312 | 0.352 | 0.285 | 0.317 |
| H3255 | 0.318 | 0.336 | 0.329 | 0.364 |
| HARA | 0.214 | 0.263 | 0.266 | 0.326 |
| HCC-15 | 0.748 | 0.694 | 0.734 | 0.745 |
| HCC-44 | 0.986 | 1 | 0.953 | 0.968 |
| HCC-78 | 0.509 | 0.47 | 0.497 | 0.501 |
| HCC-366 | 0.401 | 0.354 | 0.392 | 0.328 |
| HCC-827 | 0.529 | 0.478 | 0.621 | 0.489 |
| HOP-62 | 0.516 | 0.462 | 0.471 | 0.458 |
| LC-2-ad | 0.469 | 0.424 | 0.45 | 0.532 |
| LCLC-97TM1 | 0.217 | 0.199 | 0.235 | 0.227 |
| LCLC-103H | 0.446 | 0.49 | 0.446 | 0.451 |
| LK-2 | 0.768 | 0.726 | 0.75 | 0.74 |
| LOU-NH91 | 0.536 | 0.518 | 0.52 | 0.571 |

| Cell Line | relative viability (first compound 0.08 µM) | relative viability (first compound 0.8 µM) | relative viability (first compound 2.53 µM) | relative viability (first compound 8 µM) |
| --- | --- | --- | --- | --- |
| LU99A | 0.473 | 0.388 | 0.482 | 0.31 |
| LXF-289 | 0.589 | 0.542 | 0.571 | 0.588 |
| NCI-H23 | 0.492 | 0.445 | 0.53 | 0.461 |
| NCI-H322M | 0.492 | 0.47 | 0.454 | 0.384 |
| NCI-H358 | 0.14 | 0.128 | 0.129 | 0.131 |
| NCI-H441 | 0.234 | 0.174 | 0.248 | 0.202 |
| NCI-H460 | 0.158 | 0.125 | 0.201 | 0.14 |
| NCI-H520 | 0.236 | 0.222 | 0.246 | 0.185 |
| NCI-H522 | 1.06 | 1.06 | 1.21 | 1.25 |
| NCI-H647 | 0.473 | 0.395 | 0.432 | 0.415 |
| NCI-H650 | 0.339 | 0.337 | 0.377 | 0.383 |
| NCI-H661 | 0.424 | 0.416 | 0.437 | 0.46 |
| NCI-H727 | 0.596 | 0.688 | 0.745 | 0.707 |
| NCI-H838 | 0.234 | 0.19 | 0.215 | 0.213 |
| NCI-H1355 | 0.399 | 0.338 | 0.412 | 0.418 |
| NCI-H1395 | 0.657 | 0.579 | 0.63 | 0.553 |
| NCI-H1437 | 0.337 | 0.302 | 0.303 | 0.308 |
| NCI-H1650 | 0.416 | 0.324 | 0.455 | 0.372 |
| NCI-H1651 | 0.528 | 0.482 | 0.531 | 0.494 |
| NCI-H1666 | 0.659 | 0.608 | 0.606 | 0.726 |
| NCI-H1734 | 0.354 | 0.328 | 0.367 | 0.312 |
| NCI-H1755 | 0.495 | 0.452 | 0.463 | 0.455 |
| NCI-H1792 | 0.632 | 0.617 | 0.645 | 0.669 |
| NCI-H1793 | 0.302 | – | 0.296 | 0.373 |

| Cell Line | relative viability (first compound 0.08 µM) | relative viability (first compound 0.8 µM) | relative viability (first compound 2.53 µM) | relative viability (first compound 8 µM) |
| --- | --- | --- | --- | --- |
| NCI-H1915 | 0.542 | 0.482 | 0.536 | 0.421 |
| NCI-H1944 | 0.347 | 0.298 | 0.343 | 0.295 |
| NCI-H1975 | 0.648 | 0.512 | 0.637 | 0.605 |
| NCI-H1993 | 0.716 | 0.666 | 0.712 | 0.556 |
| NCI-H2009 | 0.218 | 0.234 | 0.242 | 0.221 |
| NCI-H2023 | 0.381 | 0.31 | 0.333 | 0.393 |
| NCI-H2085 | 0.472 | 0.479 | 0.452 | 0.56 |
| NCI-H2087 | 0.28 | 0.253 | 0.285 | 0.291 |
| NCI-H2126 | 0.341 | 0.384 | 0.367 | 0.395 |
| NCI-H2170 | 0.397 | 0.337 | 0.371 | 0.386 |
| NCI-H2228 | 0.845 | 0.631 | 0.863 | 0.693 |
| NCI-H2347 | 0.441 | 0.425 | 0.358 | 0.42 |
| NCI-H2405 | 0.545 | 0.538 | 0.522 | 0.486 |
| NCI-H3122 | 0.176 | 0.149 | 0.196 | 0.336 |
| PC-3 [JPC-3] | 0.561 | 0.487 | 0.518 | 0.556 |
| PC-14 | 0.603 | 0.452 | 0.51 | 0.528 |
| RERF-LC-KJ | 1.17 | 0.934 | 1.12 | 0.995 |
| SK-LU-1 | 0.427 | 0.342 | 0.429 | 0.381 |
| SK-MES-1 | 0.331 | 0.27 | 0.331 | 0.361 |
| SW 900 | 0.598 | 0.499 | 0.681 | 0.553 |
| SW 1573 | 0.433 | 0.371 | 0.354 | 0.523 |
| UMC-11 | 0.327 | 0.388 | 0.289 | 0.338 |
